# Measurements taken from ChEMBL document CHEMBL1201862, “PubChem BioAssay data set” (2004).
# Calls of active or inactive are those of the source.
# Key:
# [1] = target: T1, Carboxy-terminal domain RNA polymerase II polypeptide A small phosphatase 1 (Homo sapiens, UniProt Q9GZU7); assay: CTDSP1 inhibitors, concentration-response, biochemical, absorbance readout, ultra-high-throughput screen actives (AID 540297); format: functional
# T1 sequence (Q9GZU7 whole entry): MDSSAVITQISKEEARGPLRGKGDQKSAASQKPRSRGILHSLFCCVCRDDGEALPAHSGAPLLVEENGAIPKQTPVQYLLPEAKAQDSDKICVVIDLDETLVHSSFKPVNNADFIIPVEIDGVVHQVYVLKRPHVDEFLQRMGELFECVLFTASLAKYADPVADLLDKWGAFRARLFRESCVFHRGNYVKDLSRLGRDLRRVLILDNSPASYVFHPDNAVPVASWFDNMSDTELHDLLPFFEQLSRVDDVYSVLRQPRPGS
# [2] = NIH-3T3 fibroblast cytotoxicity, dose response, cytotoxicity control, cell-based, fluorescence, Alamar Blue, secondary assay (AID 2327); format: functional;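 note: NIH-3T3 mouse fibroblasts cultured with fluconazole at 8 µg/mL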
# [3] = fluconazole-exposed Candida albicans growth modulators – fluorescence, retest, confirmation (AID 2467); format: functional, cell-based
# Beta-galactosidase = Beta-galactosidase (Escherichia coli, UniProt Q8VNN2); assay: PubChem AID 485352; format: functional
# Beta-galactosidase, sequence (Q8VNN2 whole entry): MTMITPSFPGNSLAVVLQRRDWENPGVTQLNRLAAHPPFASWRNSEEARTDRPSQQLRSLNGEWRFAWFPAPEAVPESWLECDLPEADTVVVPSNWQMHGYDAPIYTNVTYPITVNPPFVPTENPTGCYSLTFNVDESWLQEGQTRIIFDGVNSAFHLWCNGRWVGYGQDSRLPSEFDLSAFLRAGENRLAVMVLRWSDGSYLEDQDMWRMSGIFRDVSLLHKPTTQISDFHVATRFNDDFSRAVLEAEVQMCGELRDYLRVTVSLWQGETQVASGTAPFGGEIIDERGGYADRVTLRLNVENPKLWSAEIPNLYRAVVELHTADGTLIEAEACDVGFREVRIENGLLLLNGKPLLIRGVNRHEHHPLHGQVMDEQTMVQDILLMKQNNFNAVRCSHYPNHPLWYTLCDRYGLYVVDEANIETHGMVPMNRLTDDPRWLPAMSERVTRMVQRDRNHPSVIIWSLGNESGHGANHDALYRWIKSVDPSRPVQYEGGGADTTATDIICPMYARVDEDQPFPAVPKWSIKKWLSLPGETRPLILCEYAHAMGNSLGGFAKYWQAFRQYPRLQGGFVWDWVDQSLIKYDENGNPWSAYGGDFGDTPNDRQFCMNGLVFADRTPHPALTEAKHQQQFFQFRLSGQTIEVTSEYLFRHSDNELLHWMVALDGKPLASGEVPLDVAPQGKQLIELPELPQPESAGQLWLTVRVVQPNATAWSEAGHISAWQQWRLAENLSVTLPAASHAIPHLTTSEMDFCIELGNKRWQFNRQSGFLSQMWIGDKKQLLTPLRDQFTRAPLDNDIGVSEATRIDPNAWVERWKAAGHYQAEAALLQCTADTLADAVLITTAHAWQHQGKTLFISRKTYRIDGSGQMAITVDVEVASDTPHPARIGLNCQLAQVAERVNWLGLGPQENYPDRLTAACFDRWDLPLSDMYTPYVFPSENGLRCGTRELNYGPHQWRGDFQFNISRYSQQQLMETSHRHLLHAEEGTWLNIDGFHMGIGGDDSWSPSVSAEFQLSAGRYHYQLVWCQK
# [4] = target: T2, Type-1 angiotensin II receptor (Homo sapiens, UniProt P30556); assay: antagonism of angiotensin II type 1 receptor – cell-based, uHTS hits, selectivity assay for APJ receptor antagonist project, dose response (AID 463214); format: functional;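 note: antagonist potency against angiotensin II stimulated AT1 response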
# T2 sequence (P30556 whole entry): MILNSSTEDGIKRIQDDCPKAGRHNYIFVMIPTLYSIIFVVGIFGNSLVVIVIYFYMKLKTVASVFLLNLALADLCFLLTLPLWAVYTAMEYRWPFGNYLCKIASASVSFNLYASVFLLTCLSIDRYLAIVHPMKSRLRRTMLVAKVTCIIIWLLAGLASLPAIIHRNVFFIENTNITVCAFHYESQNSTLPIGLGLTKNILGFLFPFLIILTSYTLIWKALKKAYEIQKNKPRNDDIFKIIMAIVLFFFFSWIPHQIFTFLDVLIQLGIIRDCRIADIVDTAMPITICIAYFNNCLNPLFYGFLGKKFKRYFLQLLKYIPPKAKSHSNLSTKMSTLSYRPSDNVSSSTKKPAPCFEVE
# [5] = target: T3, Heat shock factor protein 1 (Mus musculus, UniProt P38532); assay: decrease of HSF1-responsive luciferase luminescence – cell-based, NIH3T3, dose retest, confirmation (AID 2382); format: functional;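 note: NIH3T3 fibroblasts with HSF1-driven luciferase reporter stressed by proteasome inhibitor MG132; luminescence from HSF1-driven luciferase expression after 8 hours of MG132 stress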
# T3 sequence (P38532 whole entry): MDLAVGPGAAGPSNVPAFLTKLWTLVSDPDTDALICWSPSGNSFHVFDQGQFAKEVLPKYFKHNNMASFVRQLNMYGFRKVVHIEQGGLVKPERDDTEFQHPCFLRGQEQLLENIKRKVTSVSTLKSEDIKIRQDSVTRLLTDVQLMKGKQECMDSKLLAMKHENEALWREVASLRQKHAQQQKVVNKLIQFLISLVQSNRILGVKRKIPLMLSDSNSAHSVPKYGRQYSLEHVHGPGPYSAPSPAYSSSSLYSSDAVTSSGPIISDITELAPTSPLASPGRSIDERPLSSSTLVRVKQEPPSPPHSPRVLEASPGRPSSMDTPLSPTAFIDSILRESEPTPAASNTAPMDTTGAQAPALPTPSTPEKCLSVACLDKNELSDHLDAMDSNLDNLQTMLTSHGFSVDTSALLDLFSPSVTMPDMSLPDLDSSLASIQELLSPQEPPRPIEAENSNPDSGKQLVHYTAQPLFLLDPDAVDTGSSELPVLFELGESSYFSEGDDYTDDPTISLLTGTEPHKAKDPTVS
# Cytochrome P450 2C19 = Cytochrome P450 2C19 (Homo sapiens, UniProt P33261); assay: Cytochrome panel assay with activity outcomes. Panel member name: p450-cyp2c19 Compounds with AC50 equal or less than 10 uM are considered active; format: functional; conditions: read-out: AC50
# Cytochrome P450 2C19, sequence (P33261 whole entry): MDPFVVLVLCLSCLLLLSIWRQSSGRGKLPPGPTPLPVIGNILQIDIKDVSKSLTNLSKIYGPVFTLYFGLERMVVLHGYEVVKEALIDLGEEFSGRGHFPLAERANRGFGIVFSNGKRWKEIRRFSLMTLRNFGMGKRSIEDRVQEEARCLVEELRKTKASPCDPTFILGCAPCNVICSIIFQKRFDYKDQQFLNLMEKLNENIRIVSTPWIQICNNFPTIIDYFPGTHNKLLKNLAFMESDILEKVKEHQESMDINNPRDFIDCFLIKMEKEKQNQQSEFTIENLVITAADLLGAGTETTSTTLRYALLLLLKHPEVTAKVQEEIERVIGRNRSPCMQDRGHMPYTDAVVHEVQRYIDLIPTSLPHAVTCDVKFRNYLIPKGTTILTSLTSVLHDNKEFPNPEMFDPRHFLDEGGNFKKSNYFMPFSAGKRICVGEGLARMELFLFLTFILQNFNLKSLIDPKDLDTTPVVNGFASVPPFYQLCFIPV
# Cytochrome P450 1A2 = target: T4, Cytochrome P450 1A2 (Homo sapiens, UniProt P05177);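 note: PubChem cytochrome P450 panel assay, CYP1A2 panel member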
# T4 sequence (P05177 whole entry): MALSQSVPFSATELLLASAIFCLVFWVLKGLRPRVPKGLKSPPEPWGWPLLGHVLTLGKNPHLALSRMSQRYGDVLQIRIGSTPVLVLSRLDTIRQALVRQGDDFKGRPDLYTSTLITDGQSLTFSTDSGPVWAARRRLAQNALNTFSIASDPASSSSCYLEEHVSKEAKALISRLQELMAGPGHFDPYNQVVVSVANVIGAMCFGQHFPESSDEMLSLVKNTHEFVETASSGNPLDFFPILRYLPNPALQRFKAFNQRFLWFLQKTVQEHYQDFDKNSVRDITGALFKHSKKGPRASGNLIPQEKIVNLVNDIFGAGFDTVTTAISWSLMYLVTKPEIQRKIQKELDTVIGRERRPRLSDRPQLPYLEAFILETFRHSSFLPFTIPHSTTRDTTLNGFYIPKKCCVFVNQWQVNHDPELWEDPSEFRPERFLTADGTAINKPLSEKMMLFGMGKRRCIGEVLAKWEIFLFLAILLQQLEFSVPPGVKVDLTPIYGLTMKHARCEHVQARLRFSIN
# Cytochrome P450 3A4 = Cytochrome P450 3A4 (Homo sapiens, UniProt P08684);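 note: CYP3A4 tested as one member of a cytochrome P450 panel screen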
# Cytochrome P450 3A4, sequence (P08684 whole entry): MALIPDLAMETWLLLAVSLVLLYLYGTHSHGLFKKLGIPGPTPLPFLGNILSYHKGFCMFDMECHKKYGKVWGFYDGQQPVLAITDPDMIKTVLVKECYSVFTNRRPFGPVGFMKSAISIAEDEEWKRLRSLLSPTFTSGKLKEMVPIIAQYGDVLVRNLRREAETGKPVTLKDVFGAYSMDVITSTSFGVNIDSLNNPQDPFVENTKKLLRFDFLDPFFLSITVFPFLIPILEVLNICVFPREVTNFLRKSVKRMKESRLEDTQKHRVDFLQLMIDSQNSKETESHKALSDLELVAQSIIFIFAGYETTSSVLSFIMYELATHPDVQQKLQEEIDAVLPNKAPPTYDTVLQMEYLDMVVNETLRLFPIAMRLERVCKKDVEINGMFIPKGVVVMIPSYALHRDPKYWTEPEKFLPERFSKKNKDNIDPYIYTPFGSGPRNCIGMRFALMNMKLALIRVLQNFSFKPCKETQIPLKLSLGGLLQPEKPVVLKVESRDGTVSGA
# Cytochrome P450 2C9 = Cytochrome P450 2C9 (Homo sapiens, UniProt P11712)
# Cytochrome P450 2C9, sequence (P11712 whole entry): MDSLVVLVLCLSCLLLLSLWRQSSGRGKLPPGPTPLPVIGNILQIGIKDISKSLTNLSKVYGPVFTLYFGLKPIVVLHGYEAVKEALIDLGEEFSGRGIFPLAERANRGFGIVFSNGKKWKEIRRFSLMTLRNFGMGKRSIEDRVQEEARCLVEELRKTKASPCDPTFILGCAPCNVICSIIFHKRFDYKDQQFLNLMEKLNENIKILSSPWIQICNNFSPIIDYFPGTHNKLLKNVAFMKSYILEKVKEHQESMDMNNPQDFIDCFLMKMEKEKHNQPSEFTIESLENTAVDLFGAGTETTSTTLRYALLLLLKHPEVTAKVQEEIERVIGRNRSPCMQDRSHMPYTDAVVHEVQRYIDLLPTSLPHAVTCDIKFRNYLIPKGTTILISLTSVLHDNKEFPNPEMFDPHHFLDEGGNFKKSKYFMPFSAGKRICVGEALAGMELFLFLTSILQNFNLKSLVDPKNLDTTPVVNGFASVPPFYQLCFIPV
# [6] = Trypanosoma cruzi growth suppression in host cells – NIH3T3 host cells, beta-gal luminescence, confirmation (AID 2044); format: functional, cell-based;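 note: intracellular parasites grown in NIH/3T3 mouse fibroblasts as host cells; luminescent beta-galactosidase reporter signal from transgenic T. cruzi replicating inside host cells; inhibitors lower the luminescence signal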
# [7] = NIH3T3 cell viability loss – ATP luminescence, mouse fibroblasts, counter-screen, dose response (AID 2010); format: functional, cell-based;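 note: cells exposed to compound for about 90 hours before reading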
# [8] = Luminescence Cell-Based Dose Retest to Confirm Inhibitors of Cancer Stem Cells. [Related pubchem assays (depositor defined):AID2717, AID2721]; format: functional; conditions: Homo sapiens
# [9] = target: T5, Microphthalmia-associated transcription factor (Homo sapiens, UniProt O75030); assay: reducers of TRPM1 reporter luminescence, concentration series – cell-based, SK-MEL-5, cherry-picked, set 3, MITF inhibitor project, dose response (AID 493073); format: functional;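 note: SK-MEL-5 melanoma cells with luciferase driven by the MITF target TRPM1 promoter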
# T5 sequence (O75030 whole entry): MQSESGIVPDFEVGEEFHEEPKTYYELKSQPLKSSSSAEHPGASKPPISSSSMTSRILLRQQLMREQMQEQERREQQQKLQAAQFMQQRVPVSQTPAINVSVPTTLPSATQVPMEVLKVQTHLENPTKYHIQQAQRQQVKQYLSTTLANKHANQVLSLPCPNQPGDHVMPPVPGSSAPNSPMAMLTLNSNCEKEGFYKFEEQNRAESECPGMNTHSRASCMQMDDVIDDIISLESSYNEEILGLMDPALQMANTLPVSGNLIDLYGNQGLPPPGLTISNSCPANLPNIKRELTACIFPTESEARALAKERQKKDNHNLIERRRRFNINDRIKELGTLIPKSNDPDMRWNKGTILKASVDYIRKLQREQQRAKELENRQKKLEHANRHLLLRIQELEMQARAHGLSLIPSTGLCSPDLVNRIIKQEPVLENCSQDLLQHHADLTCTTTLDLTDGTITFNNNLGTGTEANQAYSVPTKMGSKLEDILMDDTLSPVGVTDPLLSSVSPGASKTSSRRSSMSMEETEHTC
# BJ [10] = assay: BJ-TERT fibroblast viability loss – cell-based, RAS-independent, luminescence, dose response (AID 1933); format: functional; conditions: Homo sapiens
# BJ [11] = assay: cells; format: functional, cell-based; conditions: Homo sapiens
# BJ [12] = assay: BJ-TERT-LT-ST fibroblast viability loss – cell-based, RAS-independent, luminescence, dose response (AID 1935); format: functional; conditions: Homo sapiens;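 note: BJ fibroblasts immortalized with TERT plus LT and ST oncogenes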
# [13] = DRD fibroblast viability loss – cell-based, non-viral oncogenic, luminescence, dose response (AID 1934); format: functional; conditions: Homo sapiens
# BJ [14] = assay: growth inhibition of engineered Ras-driven BJ cells – cell-based, alamar blue fluorescence, cherrypicked samples, dose response (AID 2631); format: functional; conditions: Homo sapiens;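 note: confirmatory dose-response assay in RAS-dependent BJ fibroblasts engineered with TERT, LT and ST, with cytotoxicity read by fluorescence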
# [15] = intracellular Trypanosoma cruzi inhibitors in host cells – cell-based, plate reader, cherry-pick samples, set 3, dose response (AID 651818); format: functional;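 note: compounds incubated with infected cells for about four days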
# [16] = luciferase reporter signal suppression in cells – H4 neuroglioma cells, luminescence, dose response (AID 1990); format: functional, cell-based
# [17] = Luminescence Cell-Based Dose Response HTS to Identify Inhibitors of 5'UTR Stem-Loop Driven Prion Protein mRNA Translation in H4 Neuroglioblastoma Cells. [Related pubchem assays: 1827 (Project Summary), 1813 (Primary HTS)]; format: functional
# [18] = alpha-synuclein stem-loop luciferase translation blockers – H4 neuroglioma cells, luminescence, confirmation (AID 1988); format: functional, cell-based
# P388/ADR = assay: cells; format: functional; conditions: Mus musculus
# SN12K1 = assay: cells; format: functional; conditions: Homo sapiens
# P388 = assay: cells; format: functional; conditions: Mus musculus
compound,measurement,setting,value
Cc1c(Cc2ccccc2)c(=O)oc2c(C)c(OCC(=O)NC[C@H]3CC[C@H](C(=O)O)CC3)ccc12,IC50,[1],4.87 µM (active)
Cc1onc(C(=O)Nc2sc3c(c2C#N)CCCC3)c1[N+](=O)[O-],EC50,[2],> 75 µM (inactive)
same,EC50,[3],1.59 µM (active)
Cn1c(=O)c(C(=S)NC(=O)C2CC2)c(N)n(Cc2ccccc2)c1=O,EC50,Beta-galactosidase,> 40 µM (inactive)
same,IC50,[4],> 40 µM (not active)
CCOc1c2ccc(C(=O)NCc3ccccc3OC)cc2nn1CC,EC50,[5],> 195 µM (not active)
same,AC50,Cytochrome P450 2C19,39.8 µM (inconclusive)
same,AC50,Cytochrome P450 1A2,17.8 µM (inconclusive)
same,AC50,Cytochrome P450 3A4,15.8 µM (inconclusive)
same,AC50,Cytochrome P450 2C9,inconclusive
N=C1/C(=C/c2cccn2-c2ccc([N+](=O)[O-])cc2)C(=O)N=C2SC=CN12,EC50,[2],> 160 µM (inactive)
same,EC50,[3],1.33 µM (active)
Cn1cc(-c2nc3cnc(Oc4cccc(Cl)c4)nc3n(CCC#N)c2=O)c2ccccc21,AC50,Cytochrome P450 1A2,2.51 µM (inconclusive)
same,AC50,Cytochrome P450 3A4,7.94 µM (inconclusive)
same,AC50,Cytochrome P450 2C9,inconclusive
Cc1c(NC(=S)/C=C2\N(C)c3ccccc3C2(C)C)c(=O)n(-c2ccccc2)n1C,AC50,Cytochrome P450 2C9,inconclusive
O=C(NNC(=O)c1cc2ccccc2cc1O)NC1CCCCC1,EC50,[2],> 150 µM (inactive)
same,EC50,[3],> 38 µM (not active)
Cc1cc(C)c2sc(N(CCCN(C)C)C(=O)c3ccc(S(=O)(=O)N4CCCc5ccccc54)cc3)nc2c1,EC50,Beta-galactosidase,> 40 µM (inactive)
same,EC50,[6],0.452 µM (active)
same,IC50,[4],> 40 µM (not active)
same,EC50,[7],12.2 µM (active)
same,AC50,[8],4.46 µM (active)
CN(C)S(=O)(=O)c1cccc(NC(=O)CSc2nc3c(cc2C#N)C(=O)CC(C)(C)C3)c1,AC50,[9],9.02 µM (active)
O=C(COC(=O)c1cnccn1)c1cccc([N+](=O)[O-])c1,EC50,Beta-galactosidase,> 40 µM (inactive)
same,IC50,[4],13.6 µM (active)
CCOC(=O)/C=C1\CN(C(C)c2ccccc2)S(=O)(=O)c2ccccc21 (stereo not given),IC50,[1],12.3 µM (active)
COc1ccccc1N1CCN(c2nc3c(C)cccn3c(=O)c2C=O)CC1,AC50,Cytochrome P450 2C19,1.12 µM (inconclusive)
same,AC50,Cytochrome P450 1A2,12.6 µM (inconclusive)
same,AC50,Cytochrome P450 2C9,inconclusive
Cc1cccc(C2NC(=O)c3c(sc(C)c3C)N2)c1O (stereo not given),AC50,Cytochrome P450 2C9,inconclusive
COc1cccc2sc(Nc3nc(C)c(C(C)=O)s3)nc12,EC50,Beta-galactosidase,> 40 µM (inactive)
same,EC50,[6],1.82 µM (active)
same,IC50,[4],23.3 µM (not active)
same,EC50,[7],7.09 µM (active)
CCCC(=O)Nc1ccc(C(=O)N/N=C/c2ccc([N+](=O)[O-])o2)cc1,EC50,BJ [10],17.2 µM (active)
same,EC50,BJ [11],0.38 µM (active)
same,EC50,BJ [12],0.534 µM (inconclusive)
same,EC50,[13],26.5 µM (active)
same,EC50,BJ [14],0.123 µM (active)
COc1ccc(S(=O)(=O)Nc2ccc3c(c2)CC(=O)N([C@@H](C)CO)C[C@H](C)[C@H](CN(C)Cc2ccc(C(=O)Nc4ccccc4N)cc2)O3)cc1,AC50,[15],3.23 µM (active)
C[C@@H]1CCCCO[C@@H](CN(C)Cc2ccc(Cl)c(Cl)c2)[C@@H](C)CN([C@H](C)CO)C(=O)c2cc(NC(=O)NC3CCCCC3)ccc2O1,AC50,[15],5.48 µM (active)
COc1ccc(S(=O)(=O)N(C)C[C@H]2Oc3ccc(NS(=O)(=O)c4ccc(Cl)cc4)cc3CC(=O)N([C@H](C)CO)C[C@H]2C)cc1,AC50,[15],4.94 µM (active)
C[C@@H]1CN([C@@H](C)CO)C(=O)Cc2cc(NC(=O)Cc3ccccc3)ccc2O[C@@H]1CN(C)Cc1ccc(Oc2ccccc2)cc1,AC50,[15],2.61 µM (active)
C[C@@H]1CCCCO[C@H](CN(C)C(=O)Nc2ccc(C(F)(F)F)cc2)[C@@H](C)CN([C@H](C)CO)C(=O)c2cc(NC(=O)C3CCCCC3)ccc2O1,AC50,[15],1.12 µM (active)
C[C@H]1CN([C@@H](C)CO)C(=O)Cc2cc(NC(=O)NC3CCCCC3)ccc2O[C@@H]1CN(C)Cc1ccc(Oc2ccccc2)cc1,AC50,[15],6.74 µM (active)
COc1ccc(S(=O)(=O)Nc2ccc3c(c2)CC(=O)N([C@H](C)CO)C[C@@H](C)[C@@H](CN(C)Cc2ccc(C(=O)Nc4ccccc4N)cc2)O3)cc1,AC50,[15],2.9 µM (active)
CC1CN(/N=C/c2ccc([N+](=O)[O-])o2)C(=N)O1 (stereo not given),AC50,[9],24.1 µM (active)
COC(=O)C[C@](O)(CCCC(C)(C)O)C(=O)O[C@@H]1C(OC)=C[C@]23CCCN2CCc2cc4c(cc2[C@H]13)OCO4 [OMACETAXINE MEPESUCCINATE],EC50,[16],< 0.1 µM (active)
same,EC50,[17],< 0.1 µM (active)
same,EC50,[18],< 0.1 µM (active)
same,EC50,BJ [14],0.00488 µM (active)
same,GI50,P388/ADR,0.247 µM (active)
same,GI50,SN12K1,0.0115 µM (active)
same,GI50,P388,0.00388 µM (active)
